Tested on: adult male Lister Hooded rats
Test: Test of novel object discrimination in rats
Type: in vivo, rat
Settings: memantine alone 5, 10, 15 and 20 mg/kg i.p. vs vehicle, 20 minutes before trial, 4 hour inter-trial interval, FIG. 1
Description: Adult male Lister Hooded rats (Charles River, UK) weighing 200-350 g at the start of the experiment were housed in groups of four on a 12:12 h light:dark cycle (lights on at 07:00 h). Food and water were available ad libitum throughout the study, and the room temperature (21±2° C.) and relative humidity (45-65%) were kept constant. In one experiment, rats received i.p. injections (2 ml/kg, −20 minutes prior to the familiarisation trial) of memantine (n=12) at 5, 10, 15 and 20 mg/kg compared with vehicle (0.5% methylcellulose in saline, 2 ml/kg), such that all rats received all doses of the compound in a random order with each behavioural test occurring at seven day intervals.
In the combination study, a group of rats (n=12 each) received injection of a sub-effective dose of compound 841 (1 mg/kg i.p.) or vehicle (0.5% methylcellulose in saline, 2 ml/kg), either alone or combined with memantine (5 mg/kg). Each drug combination was administered to all rats in the group over a period of 4 weeks in a random order using a seven day behavioural test interval. […]

CC12CC3CC(C)(C1)CC(N)(C3)C2 [memantine, 1-amino-3,5-dimethyladamantane]
discrimination of a novel object against a familiar object (time spent exploring each object): high amounts of said compound are necessary for rats to discriminate a novel object against a familiar object

From patent US20100074955A1, “Combination of NMDA-Receptor Ligand and a Compound With 5-HT6 Receptor Affinity” (LABORATORIOS DEL DR. ESTEVE, S.A., priority 2006, published 2010)
